From PubChem BioAssay AID179 (DTP/NCI, 2004) come the findings set out here.

The experiment has as its system CEM cells HIV-1 protection, formazan growth assay. As to the kind of experiment: NCI AIDS Antiviral Assay. Particulars: for IC50: measured here: growth of uninfected CEM cells. Summed up: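 Category rules: moderately active means at least 50% protection on retest, and confirmed active means 100% protection reproducibly. The underlying data came from a formazan growth assay in HIV-1-infected CEM cells.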

Molecules are shown by their SMILES. Several values for one entry are separate records, joined by “and”; a condition that tells them apart may be missing. Equal values may be shown once. Activity calls are given as the source filed them.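 The calls were made as follows: active = compounds giving half or more protection of infected cells from virus-caused growth loss, again on retest; inactive = the rest.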

As usually defined, the EC50 is the concentration needed to bring the measured effect to its halfway point. As usually defined, the IC50 is the concentration that inhibits the measured activity by half. As to `O=C([O-])C(=O)[N-]CCC[N-]C(=O)C(=O)[N-]CCC[N-]C(=O)C(=O)[O-].[Cu+2].[Cu+2].[Na+]`, the EC50 was over 200 µM and the IC50 amounted to 17 µM.
The corresponding values for `COC(=O)c1oc([N+](=O)[O-])c(Cl)c1Cl` are over 151 µM and 0.776 µM.
Turning to `N#CCCN(CCN(CCN(C(=O)Nc1ccccc1)c1ccccc1)C(=O)Nc1ccccc1)C(=O)Nc1ccccc1`, the EC50 is over 200 µM and the half-maximal inhibitory concentration (IC50) worked out at 9.33 µM.
`CCCCCCCCCCCCCCCC(O)S(=O)(=O)O` (stereo not drawn): the EC50 was over 100 µM and the half-inhibitory concentration (IC50) was determined as 15.1 µM.
For `CCCCCC[n+]1noc(N)c1-c1ccc(-c2c(N)on[n+]2CCCCCC)cc1`, the EC50 is over 200 µM and the IC50 amounted to 2.57 µM.
Regarding `CCCC(NCCNC(CCC)C(=O)O)C(=O)O` (stereo not drawn), the EC50 was over 589 µM and the IC50 is over 589 µM.
As to `CC(=O)Oc1ccccc1C(=O)Nc1ccc(S(=O)(=O)c2ccc(NC(=O)c3ccccc3OC(C)=O)cc2)cc1`, the EC50 is over 200 µM and the half-inhibitory concentration (IC50) is over 200 µM.
For the compound `O=c1[nH][nH]c(=O)n1Cc1cccc(Cn2c(=O)[nH][nH]c2=O)c1`, the EC50 is over 200 µM and the half-inhibitory concentration (IC50) was over 200 µM.
Regarding `O=c1c2ccccc2nc(N/N=C/c2ccc(Cl)cc2)n1-c1ccccc1`, the EC50 was over 200 µM and the IC50 was over 200 µM.
In the case of `Cc1cc2c(c3ncccc13)OCN(Cc1ccc(Cl)cc1)C2`, the EC50 was over 200 µM and the concentration for half-maximal inhibition (IC50) is 1.07 µM.
For `CC1=C(C)C(=O)C(C2=CC(=O)c3ccccc3C2=O)=C(C2=CC(=O)c3ccccc3C2=O)C1=O` the same measures were over 200 µM and 3.39 µM.
`FC1OC2OC1C(OCc1ccccc1)C(OCc1ccccc1)C2OCc1ccccc1` (stereo not drawn): the EC50 is over 6.03 µM and the half-inhibitory concentration (IC50) is over 6.03 µM.
Consider `OC(c1ccc(F)cc1)C(F)(F)c1nc2ccccc2o1` (stereo not drawn), for which the EC50 is over 200 µM and the IC50 is over 200 µM.
`S=c1cc(-c2ccccc2)ss1`: the EC50 is over 200 µM; the half-maximal inhibitory concentration (IC50) is 38 µM and > 200 µM.
On to `O=C1c2ccsc2C(=O)c2ccsc21`, for which the EC50 is over 6.61 µM and the IC50 came out at 5.13 µM.
As for `COc1cc(C(Cc2ccnc3ccccc23)Cc2ccnc3ccccc23)ccc1N(C)C`, the EC50 was over 16.2 µM and the IC50 came out at 3.16 µM.
The corresponding values for `NC1c2c(Cl)sc(Cl)c2C(=O)C1O` (stereo not drawn) are over 200 µM and 35.5 µM.
Regarding `O=C(N/N=C/c1ccccc1)c1c(F)c(F)c(F)c(F)c1F`, the EC50 was over 200 µM and the half-inhibitory concentration (IC50) was 112 µM.
Take `COC(=O)[C@]1(C)CCC[C@]2(C)C3=CC(=O)[C@@]4(C(C)C)O[C@H]4[C@]3(O)CC[C@@H]12`: the EC50 was over 72.4 µM and the IC50 is over 72.4 µM.
With `Cn1cnc2nc[nH]c2c1=N`, the EC50 is over 200 µM and the IC50 is over 200 µM.
In the case of `CN(C)CCC(=O)N1C/C(=C/c2ccccc2)C(=O)/C(=C\c2ccccc2)C1`, the EC50 was over 17.4 µM and the concentration for half-maximal inhibition (IC50) amounted to 0.339 µM.
For the compound `Cc1cc(C)nc(NS(=O)(=O)c2ccc(NC(=O)COC(=O)c3cccc4c(=O)c5ccccc5[nH]c34)cc2)n1`, the outcome was inactive.
In the case of `O=C(NNC(=S)NCc1ccccc1)C12CC3CC(CC(C3)C1)C2`, the EC50 is over 200 µM and the concentration for half-maximal inhibition (IC50) was determined as 25.1 µM.
Turning to `COc1ccc2c(C3(C)OC(=O)c4ccccc43)cccc2c1` (stereo not drawn), the EC50 is over 40.7 µM and the IC50 is over 40.7 µM.
For the compound `C=CCC(/C=C\CC)(C(=O)O)C(=O)O`, the EC50 is over 661 µM and the IC50 is over 661 µM.
Regarding `COc1cc(-c2cc(=O)c3cc(C)c(C)c(C(=O)O)c3o2)cc(OC)c1OC`, the outcome was inactive.
`O=C1C=C(Nc2ccccc2C(=O)CC(=O)C(=O)Nc2cccc([N+](=O)[O-])c2)c2ccccc2C1=O`: the EC50 is over 20.9 µM and the IC50 amounted to 15.5 µM.
Regarding `CSc1c(C#N)c(=C(C#N)C#N)nc(C)/c1=C(\C)O`, the EC50 was over 100 µM and the IC50 is over 100 µM.
Turning to `Cn1c(N)c2c(=O)n(C)c3c(c2c(C#N)c1=O)CCSc1ccccc1-3`, the EC50 was over 9.33 µM and the half-maximal inhibitory concentration (IC50) is over 9.33 µM.
For `C/C(=N\NC(=S)N1CC2CCC(CC2)C1)c1nccs1`, the EC50 is over 115 µM and the IC50 worked out at 0.363 µM.
In the case of `CCOC(=O)C(NC(=O)CC)(Nc1ccc(S(=O)(=O)Nc2ccc(OC)nn2)cc1)C(F)(F)F` (stereo not drawn), the EC50 was over 200 µM and the IC50 was over 200 µM.
Take `CCCCCCCCCCOC1C(C(C)OCCCN(C)C)OC2OC3(CCCCC3)OC21` (stereo not drawn): the EC50 is over 200 µM and the half-inhibitory concentration (IC50) amounted to 10.5 µM.
For the compound `O=C(NNC1=NCCCN1)Nc1ccccc1`, the EC50 is over 200 µM and the IC50 is over 200 µM.
As to `O=C1[C@H](Cc2ccccc2)C[C@H]2CO[C@H](c3ccccc3)N12`, the EC50 was over 200 µM and the half-maximal inhibitory concentration (IC50) was 38.9 µM.
`CC12CCC(O1)C1C(=O)OC(=O)C12` (stereo not drawn): the EC50 is over 490 µM and the IC50 is 437 µM.
`N#C/C(=C(\O)c1ccccc1)c1nc2ccccc2[nH]1`: the EC50 was over 69.2 µM and the IC50 was over 69.2 µM.
Turning to `O=C(NCCCCCCCCNC(=O)c1cc(-c2ccccc2)nc2ccccc12)c1cc(-c2ccccc2)nc2ccccc12`, the EC50 was over 200 µM and the IC50 is over 200 µM.
For `CCC1NCC(=O)c2c1[nH]c1ccccc21` (stereo not drawn), the outcome was inactive.
Consider `S=c1[nH]c2ccccc2c(=S)n1CN1CCCCC1`, for which the EC50 is over 200 µM and the IC50 came to 110 µM.
For the compound `CC1=C(O[Si](C(C)C)(C(C)C)C(C)C)C2CC1[C@@H]1C(=O)N(c3ccccc3)C(=O)[C@H]21` (stereo partly drawn), the EC50 is over 6.46 µM and the half-inhibitory concentration (IC50) was over 6.46 µM.
`COc1ccc(OC)c(/C=N/N=C(\N)NO)c1`: the EC50 was over 603 µM and the half-inhibitory concentration (IC50) came to 115 µM.
For the compound `Cc1cc(-c2ccc(C(=O)C(Cl)(Cl)Cl)[nH]2)on1`, the EC50 was over 200 µM and the IC50 worked out at 17.8 µM.
For `CC(=O)n1nnc2ccc([N+](=O)[O-])cc21` the same measures were over 34.7 µM and over 34.7 µM.
With `CCC1(O)CCC2C3CC=C4CCCCC4C3CCC21C` (stereo not drawn), the EC50 is over 200 µM and the IC50 came to 30.9 µM.
Consider `O=c1[nH]c(=O)n(C2CC(O)C(CO)O2)cc1OS(=O)(=O)C(F)(F)F` (stereo not drawn), for which the EC50 was over 661 µM and the half-inhibitory concentration (IC50) worked out at 9.77 µM.
The corresponding values for `Cn1c(=O)c(C(c2ccc([N+](=O)[O-])cc2)c2c(O)c3ccccc3n(C)c2=O)cc2ccccc21` (stereo not drawn) are over 4.27 µM and over 4.27 µM.
`CC1=CC(O)(c2ccccn2)P(=O)(c2ccccc2)C=C1C` (stereo not drawn): the EC50 was over 794 µM and the IC50 is over 794 µM.
For the compound `O=P1(N2CCCCC2)OCC2(CO1)COP(=O)(N1CCCCC1)OC2` (stereo not drawn), the EC50 is over 200 µM and the IC50 is over 200 µM.
As to `Nc1ccc[nH]c1=O`, the EC50 is over 234 µM and the IC50 was over 234 µM.
For `CC(C)NC(=O)OCc1c(COC(=O)NC(C)C)c(-c2ccc(Cl)c(Cl)c2)n2c1CCC2`, the EC50 is over 7.41 µM and the 50% inhibitory concentration (IC50) worked out at 4.47 µM.
Consider `Nc1nc(Cl)cc(NCC2(CO)CC(c3ccccc3)C2)n1` (stereo not drawn), for which the EC50 is over 20 µM and the IC50 worked out at 1.58 µM.
For `CCOC(=O)c1c(C(F)(F)F)c2cc(C(=O)C(F)(F)F)c3ccccc3c2n1C` the same measures were over 42.7 µM and over 42.7 µM.
For `N#Cc1c2c(c(Cl)n3c1nc1ccccc13)CCCC2` the same measures were over 3.72 µM and over 3.72 µM.
The corresponding values for `Cc1c2c(n(CC(c3ccccc3)c3ccccc3)c1C)NN=C(C#N)S2(=O)=O` are over 200 µM and over 100 µM.
For the compound `CCOP(=O)(OCC)/C(C#N)=C/c1ncc[nH]1`, the EC50 was over 200 µM and the concentration for half-maximal inhibition (IC50) was over 200 µM.
Regarding `c1ccc(C2N=NN(c3ccccc3)C2N2CCCCC2)cc1` (stereo not drawn), the outcome was inactive.
On to `CCCC/C=C(/CCCNCCCC)[Si](C)(C)C`, for which the EC50 was over 479 µM and the IC50 is 240 µM.
As for `COc1cccc(NC(=S)/C(=C(/[O-])c2ccc(C)cc2)[n+]2ccccc2)c1`, the EC50 was over 200 µM and the half-maximal inhibitory concentration (IC50) is over 200 µM.
On to `O=[N+]([O-])/C=C(\CS(=O)(=O)c1ccccc1)c1ccc2c(c1)OCO2`, for which the EC50 is over 81.3 µM and the IC50 came to 31.6 µM.
As for `Cc1ccc(S(=O)(=O)Nn2c(O)c(C#N)c(-c3ccc([N+](=O)[O-])cc3)c(C#N)c2=O)cc1`, the EC50 was over 200 µM and the IC50 is over 200 µM.
`CN(C)CCC1(c2ccccc2)C=Cc2ccccc21` (stereo not drawn): the EC50 is over 200 µM and the concentration for half-maximal inhibition (IC50) was determined as 107 µM.
For the compound `COc1cc(/C=C(\C#N)C(=O)c2ccccc2)ccc1OCc1ccccc1`, the EC50 is over 19.5 µM and the concentration for half-maximal inhibition (IC50) was over 19.5 µM.
For the compound `Cc1c2cccc1CSCc1cccc(c1C)CSC2`, the EC50 is over 123 µM and the half-maximal inhibitory concentration (IC50) is over 123 µM.
For the compound `CC(C)CCC1(O)O[C@H]2C[C@H]3[C@@H]4CCC5=CC(=O)C=C[C@]5(C)[C@H]4CC[C@]3(C)[C@H]2[C@@H]1C` (stereo partly drawn), the result was inactive.
`O=S(=O)(O)c1cc2ccc1/C=C\c1ccc(cc1S(=O)(=O)O)N=Nc1ccc(c(S(=O)(=O)O)c1)/C=C\c1ccc(cc1S(=O)(=O)O)N=N2`: the outcome was active.
Turning to `COC(=O)c1ccccc1C1CN=NC12Cc1c(ccc(C)c1C)C2=O` (stereo not drawn), the EC50 was over 151 µM and the half-maximal inhibitory concentration (IC50) is over 151 µM.
As to `O=S1(=O)c2ccccc2NC(=S)CC1c1ccccc1` (stereo not drawn), the EC50 was over 200 µM and the IC50 came out at 129 µM.
In the case of `O=[N+]([O-])c1nccn1CC(O)CO` (stereo not drawn), the EC50 is over 661 µM and the IC50 is over 661 µM.
As for `Cc1cccc(/C=N/NC(=S)NC(C)(C)C)n1`, the EC50 is over 200 µM and the IC50 worked out at 18.2 µM.
With `O=C(O)c1ccccc1NS(=O)(=O)c1ccc([N+](=O)[O-])cc1`, the result was inactive.
With `c1cc(C[N+]23CN4CN(CN(C4)C2)C3)cs1`, the result was inactive.
Regarding `CCN(CC)CCC(=O)c1ccc(Oc2ccc(Cl)cc2)cc1`, the EC50 is over 200 µM and the IC50 was found to be 30.2 µM.
As for `CCC[CH2][Sn]1([CH2]CCC)[O]C(=O)C2C(C=C(C)C)C=C(C)C(C)C2C(=O)[O]1` (stereo not drawn), the EC50 is over 2 µM and the concentration for half-maximal inhibition (IC50) was 0.0871 µM.
